Tests used:
[1] = tested on: wt and depression-like mouse models; test: Forced Swimming test (FST), acute administration; type: in vivo, mice
AMPK = AMPK phosphorylation in hypothalamus by western blot; type: in vivo, mice; conditions: 1mg/kg
hippocampal neurogenesis = test: Hippocampal neurogenesis (BrdU-positive cells in dentate gyrus); type: in vivo, mice; conditions: chronic AdipoRon
[2] = tested on: pro-inflammatory cytokines (IL1β, IL6, TNFα, IFNγ); test: Pro-inflammatory cytokines measurement in brain areas (ECL-based assay); type: in vivo; conditions: corticosterone-treated mice, chronic AdipoRon
Description: Data were digitized at 5-10 kHz using a Digidata interface coupled to a microcomputer running pClamp 9 (Axon Instruments, USA). Current-clamp data were digitized at 0.5 kHz using the same interface. Potentials were digitally filtered at 1-3 kHz. Average data were expressed as mean ± SEM, n = number of neurons, N = number of mice. • Western blot analysis - Total proteins were extracted from mouse hypothalamus by homogenization in lysis buffer (50mM Tris-HCl, pH7.5, 150mM NaCl, 5mM EDTA containing 0.5% Triton X-100 and 0.5% sodium deoxycholate with a coktail of protease and phosphatase inhibitors). Equal amounts of total proteins (50µg) determined by the Bradford method (BioRad) were separated onto 12% SDS-PAGE, then transferred on nitrocellulose membrane (Schleicher & Schuell, Dassel, Germany). Blots were incubated in PBS 0.1% Tween, 2% BSA with antibodies directed against phospho-AMPKα (Thr172), total AMPK (Cell Signaling), and then with the appropriate HRP-secondary antibody. […] IFNγ, IL1β, IL6, and TNFα, levels were measured using an electro-chemo-luminescence (ECL)-based assay (U-plex, MesoScaleDiscovery) following manufacturer instructions. Results were standardized according to the protein concentration of each sample determined by the Bradford method. • Kynurenine pathway metabolites measurement - Plasma levels of L-kynurenin (L-Kyn), tryptophan (Trp), kynurenin acid (Kyn ac), 5-HT and 5-HIAA were determined as follows: 25µl of plasma was deproteinated with 150µl of cold MeOH. […] Determination of L-Kyn, Trp, Kyn ac, 5-HT and 5-HIAA levels, done in triplicate, were determined by liquid chromatography coupled to MS-MS analysis as previously described with minor modifications (Fuertig, Ceci et al. 2016). • Statistical Analysis - Statistical analyses were performed using GraphPad Prism 4.0 software. Biological parameters and q-PCR data were analyzed using a one-way (treatment) or two-way (pretreatment X treatment) analysis of variance, followed by a post-hoc multiple comparison procedure using the Dunnett's method. […]

O=C(COc1ccc(C(=O)c2ccccc2)cc1)NC1CCN(Cc2ccccc2)CC1 [AdipoRon, 2-(4-Benzoylphenoxy)-N-[1-(phenylmethyl)-4-piperidinyl]-acetamide]
immobility time in the FST ([1]; ApN-/- mice, 0.5mg/kg ip, one-hour post injection): remained inefficient
immobility time in the FST ([1]; ApN-/- mice, 1mg/kg per os (gavage), one-hour before FST): reduced the immobility time
immobility time in the FST ([1]; ApN-/- mice, 5mg/kg ip, one-hour post injection): decreased the immobility time
immobility time in the FST ([1]; C57BL/6J wt mice, 1mg/kg ip, 1h post-injection, vs vehicle): decreased the immobility time
immobility time in the FST ([1]; C57BL/6J wt mice, 1mg/kg ip, 3h post-injection, vs vehicle): no significant effect
immobility time in the FST ([1]; corticosterone-treated mice, 0.5mg/kg ip, one-hour post injection): significantly reduced the immobility time
immobility time in the FST ([1]; corticosterone-treated mice, 5mg/kg ip, one-hour post injection): decreased the immobility time
immobility time in the FST ([1]; wt mice, 0.5mg/kg ip, one-hour post injection): significantly reduced the immobility time
immobility time in the FST ([1]; wt mice, 1mg/kg per os (gavage), one-hour before FST): reduced the immobility time
immobility time in the FST ([1]; wt mice, 5mg/kg ip, one-hour post injection): decreased the immobility time
level of phospho-AMPK (AMPK; 1-hour post ip injection): increased the level of phospho-AMPK
level of phospho-AMPK (AMPK; 30 min post ip injection): increased the level of phospho-AMPK
level of phospho-AMPK (AMPK; 3 hours post ip injection): no longer observable
hippocampal neurogenesis rate (BrdU-positive nuclei in dentate gyrus) (hippocampal neurogenesis; control conditions (no corticosterone)): without modifying neurogenesis
hippocampal neurogenesis rate (BrdU-positive nuclei in dentate gyrus) (hippocampal neurogenesis; long-term corticosterone-treated mice, 21-days post-BrdU injections): reversed the deleterious effect of corticosterone
corticosterone-induced cytokines differences (IFNγ) ([2]; hippocampus): abolished
corticosterone-induced cytokines differences (IL1β, TNFα, IFNγ) ([2]; hypothalamus): abolished
corticosterone-induced cytokines differences (IL1β, IL6, TNFα) ([2]; prefrontal cortex): abolished

— EP3431468B1, “USE OF ADIPONECTIN RECEPTOR AGONISTS IN TREATING DEPRESSION, ANXIETY AND NEUROINFLAMMATION” (CENTRE NATIONAL DE LA RECHERCHE SCIENTIFIQUE, priority 2017, dated 2019)
